Results from US7335665B2, “Spirocyclic piperidines as MCH1 antagonists and uses thereof” (H - Lundbeck A/S, priority 2003, dated 2008).

Molecular target: T1, rat MCH1 receptor (Rattus norvegicus, UniProt P97639)
T1 construct: expressed in transfected cells; host or cells: Human embryonic kidney Peak rapid 293 cells (Peakr293), transient, calcium phosphate; membranes
Assay: Radioligand binding assay at cloned rat MCH1 receptor ([3H]Compound A displacement)
Conditions: KI, cloned rat MCH1, membranes of transfected Peakr293 cells, 0.08 nM [3H]Compound A, 25° C., 90 minutes
Procedure: For binding assays, pellets of transfected cells are suspended in ice-cold buffer (20 mM Tris.HCl, 5 mM EDTA, pH 7.4) and homogenized by sonication for 7 sec. The cell lysates are centrifuged at 200×g for 5 min at 4° C. The supernatants are then centrifuged at 40,000×g for 20 min at 4° C. The resulting pellets are washed once in the homogenization buffer and suspended in binding buffer (see methods for radioligand binding). Protein concentrations are determined by the method of Bradford (1976) using bovine serum albumin as the standard. Binding assays are usually performed immediately, however it is possible to prepare membranes in batch and store frozen in liquid nitrogen for future use.
Radioligand binding assays for the rat MCH1 receptor were carried out using plasmid pcDNA3.1-rMCH1-f (ATCC Patent Deposit Designation No. PTA-3505). Plasmid pcDNA3.1-rMCH1-f comprises the regulatory elements necessary for expression of DNA in a mammalian cell operatively linked to DNA encoding the rat MCH1 receptor so as to permit expression thereof. Plasmid pcDNA3.1-rMCH1-f was deposited on Jul. 5, 2001, with the American Type Culture Collection (ATCC), 12301 Parklawn Drive, Rockville, Md. 20852, U.S.A. under the provisions of the Budapest Treaty for the International Recognition of the Deposit of Microorganisms for the Purposes of Patent Procedure and was accorded ATCC Patent Deposit Designation No. PTA-3505.
Human embryonic kidney Peak rapid 293 cells (Peakr293 cells) were transiently transfected with DNA encoding the MCH1 receptor utilizing the calcium phosphate method and cell membranes were prepared as described above. Binding experiments with membranes from Peakr293 cells transfected with the rat MCH1 receptor were performed with 0.08 nM [^3H]Compound A (custom labeled by Amersham) (the synthesis of Compound A is described in detail below) using an incubation buffer consisting of 50 mM Tris pH 7.4, 10 mM MgCl2, 0.16 mM PMSF, 1 mM 1,10 phenantroline and 0.2% BSA. Binding was performed at 25° C. for 90 minutes. Incubations were terminated by rapid vacuum filtration over GF/C glass fiber filters, presoaked in 5% PEI using […] Tris pH 7.4 as wash buffer. In all experiments, nonspecific binding is defined using […] Compound A.
The compounds described above were assayed using cloned rat MCH1.

T1 sequence (P97639 whole entry): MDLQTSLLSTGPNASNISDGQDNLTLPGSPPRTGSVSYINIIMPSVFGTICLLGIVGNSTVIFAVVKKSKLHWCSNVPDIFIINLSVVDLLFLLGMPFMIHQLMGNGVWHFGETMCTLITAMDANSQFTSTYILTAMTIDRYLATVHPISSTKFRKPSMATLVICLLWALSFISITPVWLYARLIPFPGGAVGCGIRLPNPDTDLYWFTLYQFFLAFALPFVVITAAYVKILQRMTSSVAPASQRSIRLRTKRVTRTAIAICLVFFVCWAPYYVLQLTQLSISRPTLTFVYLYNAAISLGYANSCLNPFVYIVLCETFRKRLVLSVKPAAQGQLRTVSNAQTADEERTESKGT

In order of rising Ki:
1. CC(C(=O)NCCCN1CCC2(CC1)OCc1ccccc12)(c1ccccc1)c1ccccc1 [Example 88, 2,2-DIPHENYL-N-(3-(SPIRO[1,3-DIHYDROISOBENZOFURAN-1,4′-PIPERIDINE]-10-YL)PROPYL)PROPANAMIDE]  144 nM
2. O=C(Cc1ccc(F)c(F)c1)NCCCN1CCC2(CC1)OCc1ccccc12 [Example 86, 2-(3,4-DIFLUOROPHENYL)-N-(3-(SPIRO[1,3-DIHYDROISOBENZOFURAN-1,4′-PIPERIDINE]-10-YL)PROPYL)ACETAMIDE]  379 nM
3. O=C(NCCCCN1CCC2(CCc3ccccc32)CC1)Nc1cc(Cl)cc(Cl)c1 [Example 26, N-(3,5-DICHLOROPHENYL)[(4-SPIRO[INDANE-1,4′-PIPERIDINE]-10-YLBUTYL)AMINO]CARBOXAMIDE]  512 nM
4. O=C(NCCCN1CCC2(CC1)OCc1ccccc12)C1(c2ccc(F)cc2)CCCC1 [Example 79, [(4-FLUOROPHENYL)CYCLOPENTYL]-N-(3-(SPIRO[1,3-DIHYDROISOBENZOFURAN-1,4′-PIPERIDINE]-10-YL)PROPYL)CARBOXAMIDE]  514 nM
5. O=C(NCCCN1CCC2(CCc3ccccc32)CC1)c1ccc(Oc2cc(Cl)cc(Cl)c2)o1 [Example 17, [5-(3,5-DICHLOROPHENOXY)(2-FURYL)]-N-(3-(SPIRO[INDANE-1,4′-PIPERIDINE]-10-YL)PROPYL)CARBOXAMIDE]  935 nM

Same assay, conditions: cloned rat MCH1, membranes of transfected Peakr293 cells, 0.08 nM [3H]Compound A, 25° C., 90 minutes; read-out: KI

In order of falling Ki:
1. O=C(NCCCCCCN1CCC2(CCc3ccccc32)CC1)c1ccc(-c2ccccc2)cc1 [Example 2, (4-PHENYL)PHENYL)-N-(6-(SPIRO[INDANE-1,4′-PIPERIDINE]-10-YL)HEXYL)CARBOXAMIDE]  970 nM
2. O=C(NCCCN1CCC2(CCc3ccccc32)CC1)c1cc(Cl)cc(Cl)c1 [Example 8, (3,5-DICHLOROPHENYL)-N-(3-(SPIRO[INDANE-1,4′-PIPERIDINE]-10-YL)PROPYL)CARBOXAMIDE]  914 nM
3. O=C1OC2(CCN(CCCNC(=O)C(c3ccccc3)c3ccccc3)CC2)c2ccccc21 [Example 93, N-[3-(1-OXOSPIRO[3-HYDROISOBENZOFURAN-3,4′-PIPERIDINE]-10-YL)PROPYL]-2,2-DIPHENYLACETAMIDE]  783 nM
4. O=C(NCCCCCN1CCC2(C=Cc3ccccc32)CC1)c1sc2ccccc2c1Cl [Example 36, (3-CHLOROBENZO[B]THIOPHEN-2-YL)-N-(5-(SPIRO[INDENE-1,4′-PIPERIDINE]-10-YL)PENTYL)CARBOXAMIDE]  736 nM
5. Cc1ccc(C2(C(=O)NCCCN3CCC4(CC3)OCc3ccccc34)CCCC2)cc1 [Example 75, [(4-METHYL)PHENYL)CYCLOPENTYL]-N-(3-(SPIRO[1,3-DIHYDROISOBENZOFURAN-1,4′-PIPERIDINE]-10-YL)PROPYL)CARBOXAMIDE]  700 nM
6. O=C(NCCCN1CCC2(CC1)C(=O)CCc1ccccc12)C(c1ccccc1)c1ccccc1 [Example 98, N-[3-(2-OXOSPIRO[1,3,4-TRIHYDRONAPHTHALENE-1,4′-PIPERIDINE]-11-YL)PROPYL]-2,2-DIPHENYLACETAMIDE]  682 nM
7. CC(C(=O)NCCCN1CCC2(CC1)OCc1ccccc12)c1ccc(Cl)cc1 (centres unmarked) [Example 83, 2-(4-CHLOROPHENYL)-N-(3-(SPIRO[1,3-DIHYDROISOBENZOFURAN-1,4′-PIPERIDINE]-10-YL)PROPYL)PROPANAMIDE]  557 nM
8. O=C(NCCCCCCN1CCC2(CCc3ccccc32)CC1)c1cccnc1Oc1ccc(Cl)cc1 [Example 33, [2-(4-CHLOROPHENOXY)(3-PYRIDYL)]-N-(6-(SPIRO[INDANE-1,4′-PIPERIDINE]-10-YL)HEXYL)CARBOXAMIDE]  431 nM
9. O=C(NCCCCCCN1CCC2(CCc3ccccc32)CC1)c1ccc(-c2ccccc2)cc1 [Example 29, (4-PHENYL)PHENYL)-N-(6-(SPIRO[INDANE-1,4′-PIPERIDINE]-10-YL)HEXYL)CARBOXAMIDE]  431 nM
10. O=C(NCCCCN1CCC2(CCc3ccccc32)CC1)c1cccnc1Oc1ccc(Cl)cc1 [Example 32, [2-(4-CHLOROPHENOXY)(3-PYRIDYL)]-N-(4-(SPIRO[INDANE-1,4′-PIPERIDINE]-10-YL)BUTYL)CARBOXAMIDE]  388 nM
11. O=C(NCCCCN1CCC2(CCc3ccccc32)CC1)c1cc(Cl)cc(Cl)c1 [Example 7, (3,5-DICHLOROPHENYL)-N-[(4-(SPIRO[INDANE-1,4′-PIPERIDINE]-10-YL)BUTYL)AMINO]CARBOXAMIDE]  271 nM
12. O=C(NCCCN1CCC2(C=Cc3ccccc32)CC1)C1(c2ccc(F)cc2)CCCC1 [Example 70, [(4-FLUOROPHENYL)CYCLOPENTYL]-N-(3-(SPIRO[INDENE-1,4′-PIPERIDINE]-10-YL)PROPYL)CARBOXAMIDE]  203 nM
13. CC(C)(C(=O)NCCCN1CCC2(CC1)OCc1ccccc12)c1ccc(Cl)cc1 [Example 81, 2-(4-CHLOROPHENYL)-2-METHYL-N-(3-(SPIRO[1,3-DIHYDROISOBENZOFURAN-1,4′-PIPERIDINE]-10-YL)PROPYL)PROPANAMIDE]  185 nM
14. CC(C(=O)NCCCN1CCC2(CCc3ccccc32)CC1)(c1ccccc1)c1ccccc1 [Example 47, 2,2-DIPHENYL-N-(3-(SPIRO[INDANE-1,4′-PIPERIDINE]-10-YL)PROPYL)PROPANAMIDE]  154 nM
15. O=C(NCCCN1CCC2(CCc3ccccc32)CC1)C1(c2ccc(Cl)cc2)CC1 [Example 58, [1-(4-CHLOROPHENYL)CYCLOPROPYL]-N-(3-(SPIRO[INDANE-1,4′-PIPERIDINE]-10-YL)PROPYL)CARBOXAMIDE]  150 nM
16. CC(C(=O)NCCCN1CCC2(C=Cc3ccccc32)CC1)c1ccc(Cl)cc1 (centres unmarked) [Example 66, 2-(4-CHLOROPHENYL)-N-(3-(SPIRO[INDENE-1,4′-PIPERIDINE]-10-YL)PROPYL)PROPANAMIDE]  140 nM
17. O=C(NCCCN1CCC2(C=Cc3ccccc32)CC1)C1(c2ccc(F)cc2)CCCCC1 [Example 72, [(4-FLUOROPHENYL)CYCLOHEXYL]-N-(3-(SPIRO[INDENE-1,4′-PIPERIDINE]-10-YL)PROPYL)CARBOXAMIDE]  131 nM
18. O=C(NCCCN1CCC2(CCCc3ccccc32)CC1)C(c1ccccc1)c1ccccc1 [Example 39, 2,2-DIPHENYL-N-(3-SPIRO[1,2,3,4-TETRAHYDRONAPHTHALENE-1,4′-PIPERIDINE]-11-YLPROPYL)ACETAMIDE]  128 nM
19. O=C(NCCCN1CCC2(C=Cc3ccccc32)CC1)C1(c2ccc(Cl)cc2)CCCC1 [Example 69, [(4-CHLOROPHENYL)CYCLOPENTYL]-N-(3-(SPIRO[INDENE-1,4′-PIPERIDINE]-10-YL)PROPYL)CARBOXAMIDE]  104 nM
20. O=C1OC2(CCN(CCCNC(=O)C(c3ccc(F)cc3)c3ccc(F)cc3)CC2)c2ccccc21 [Example 95, 2,2-BIS(4-FLUOROPHENYL)-N-[3-(1-OXOSPIRO[3-HYDROISOBENZOFURAN-3,4′-PIPERIDINE]-10-YL)PROPYL]ACETAMIDE]  84.6 nM
21. O=C(NCCCN1CCC2(C=Cc3ccccc32)CC1)C1(c2ccc(Cl)cc2)CCCCC1 [Example 71, [(4-CHLOROPHENYL)CYCLOHEXYL]-N-(3-(SPIRO[INDENE-1,4′-PIPERIDINE]-10-YL)PROPYL)CARBOXAMIDE]  71 nM
22. O=C(NCCCN1CCC2(CC1)Cc1ccccc1C2)C(c1ccccc1)c1ccccc1 [Example 61, 2,2-DIPHENYL-N-(3-(SPIRO[INDANE-2,4′-PIPERIDINE]-10-YL)PROPYL)ACETAMIDE]  49 nM
23. O=C(NCCCCN1CCC2(CCc3ccccc32)CC1)c1ccc(F)c(F)c1 [Example 60, (3,4-DIFLUOROPHENYL)-N-(4-(SPIRO[INDANE-1,4′-PIPERIDINE]-10-YL)BUTYL)CARBOXAMIDE]  42.3 nM
24. Cc1ccc(C(C(=O)NCCCN2CCC3(CC2)OCc2ccccc23)c2ccc(C)cc2)cc1 [Example 78, 2,2-BIS(4-METHYL)PHENYL)-N-(3-(SPIRO[1,3-DIHYDROISOBENZOFURAN-1,4′-PIPERIDINE]-10-YL)PROPYL)ACETAMIDE]  19.7 nM
25. O=C(NCCCN1CCC2(CC1)OCc1ccc(F)cc12)C(c1ccccc1)c1ccccc1 [Example 101, N-[3-(5-FLUOROSPIRO[1,3-DIHYDROISOBENZOFURAN-3,4′-PIPERIDINE]-10-YL)PROPYL]-2,2-DIPHENYLACETAMIDE]  5.8 nM
26. O=C(NCCCN1CCC2(C=Cc3ccccc32)CC1)C(c1ccc(Cl)cc1)c1ccc(Cl)cc1 [Example 68, 2,2-BIS(4-CHLOROPHENYL)-N-(3-(SPIRO[INDENE-1,4′-PIPERIDINE]-10-YL)PROPYL)ACETAMIDE]  5.8 nM
27. O=C(NCCCN1CCC2(CC1)OCc1ccccc12)C(c1ccc(Cl)cc1)c1ccc(Cl)cc1 [Example 90, 2,2-BIS(4-CHLOROPHENYL)-N-(3-(SPIRO[1,3-DIHYDROISOBENZOFURAN-1,4′-PIPERIDINE]-10-YL)PROPYL)ACETAMIDE]  5.4 nM
